≈ marks a conversion by molar mass, not a printed value. Where a SMILES comes first, the peptide text is derived from it. Bridges are numbered along the chain shown (N, C = ends). Where no end group is shown, it is not given here. [ ]: non-standard residue; d: D form. The star is where a group is joined. Acm = CC(=O)NC*
Tests used:
B. coagulans ATCC 7050 = conditions: ATCC 7050, 24 h
Experimental: (§2) Bacterial cultures were grown in Luria Bertani broth (Hi-media) by overnight incubation at 37°C with constant shaking. Microbial cultures having 10^6 CFU/ml were made from OD 0.6 culture. Respective peptide stock concentration (1mg/ml) were prepared in sterile water and diluted in LB broth to make concentrations ranging from 1–200 μg/ml. Bacterial culture (50 μl) was treated with 50 μl of individual peptide amide solution of various concentrations and incubated for 24 h at 37°C with constant shaking in a 96 well microtitre plate. […] The minimum inhibitory concentration (MIC) was taken as the dose at which 100% of growth inhibition was observed and was calculated from the graph. MIC was calculated from independent experiments performed in triplicate.

B. subtilis MTCC 14416 = conditions: MTCC 14416, 24 h
Experimental: as §2

S. aureus ATCC 9542 = conditions: ATCC 9542, 24 h
Experimental: as §2

E. coli MG 1655 = conditions: MG 1655, 24 h
Experimental: as §2

P. aeruginosa ATCC 27853 = conditions: ATCC 27853, 24 h
Experimental: as §2

[1] = system: V. cholerae (clinical isolates); conditions: 24 h
Experimental: as §2

PBMCs = assay type: cell-based, human
Experimental: Peripheral blood mononuclear cells (PBMCs) were isolated from heparanised blood of healthy individuals. Five milliliter of blood was diluted with PBS (pH 7.4), and layered above 5 ml of histopaque and centrifuged at 1200 rpm for 30 min at room temperature. The upper layer was discarded, and the interphase containing PBMCs were carefully withdrawn and washed with PBS. It was centrifuged at 1500 rpm at room temperature for 10 min, the pellets were resuspended in RPMI medium and the cells were counted.
(§1) Cytotoxicity of the peptides against human embryonic kidney (HEK) cells, skin cancer cells (A431) and PBMCs were evaluated by 3-[4, 5-dimethylthiazol-2-yl]-2, 5-diphenyl tetrazolium bromide (MTT) assay. Peptide solution prepared in less than 0.2% DMSO (10–100 μg/ml) was treated with initially seeded 10,000 cells per well for HEK and A431 cells. To assess peptide cytotoxicity in PBMCs, MTT assay was performed by adding different concentrations of the respective peptides to 96 well plate containing 40,000 PBMCs per well, in triplicate. The conversion of MTT into […] was determined by measuring the absorbance at 570 nm.

skin cancer cells (A431) = assay type: cell-based, human
Experimental: as §1

[2] = system: human embryonic kidney (HEK) cells; assay type: cell-based
Experimental: as §1

Row | Compound | MIC (B. coagulans ATCC 7050) | MIC (B. subtilis MTCC 14416) | MIC (S. aureus ATCC 9542) | MIC (E. coli MG 1655) | MIC (P. aeruginosa ATCC 27853) | MIC [1] | CC 50 (PBMCs) | CC 50 (skin cancer cells (A431)) | CC 50 [2]
1 | LIAGLAANFLPQILCKIARK-NH2 [B1CTcu5-C] | 25 µg/mL | 50 µg/mL | 50 µg/mL | 25 µg/mL | >100 µg/mL | 50 µg/mL | – | – | –
2 | CC[C@H](C)[C@@H]1NC(=O)[C@H](CCCCN)NC(=O)[C@@H](NC(=O)[C@H](CC(C)C)NC(=O)[C@@H](NC(=O)[C@H](CCC(N)=O)NC(=O)[C@@H]2CCCN2C(=O)[C@H](CC(C)C)NC(=O)[C@H](Cc2ccccc2)NC(=O)[C@H](CC(N)=O)NC(=O)[C@H](C)NC(=O)[C@H](C)NC(=O)[C@H](CC(C)C)NC(=O)CNC(=O)[C@H](C)NC(=O)[C@@H](NC(=O)[C@@H](N)CCCNC(=N)N)[C@@H](C)CC)[C@@H](C)CC)CSSC[C@@H](C(N)=O)NC(=O)[C@H](CCCCN)NC(=O)[C@H](CCCNC(=N)N)NC(=O)[C@H](C)NC1=O [B1CTcu5R] (H-RIAGLAANFLPQILCKIARKC-NH2; disulfide 15-21) | 12.5 µg/mL (≈ 5.44 µM) | 50 µg/mL (≈ 21.8 µM) | 25 µg/mL (≈ 10.9 µM) | 25 µg/mL (≈ 10.9 µM) | >100 µg/mL | 12.5 µg/mL (≈ 5.44 µM) | 96.1 ± 1.22 µg/mL (≈ 41.8 µM) | >100 µg/mL | >100 µg/mL
3 | CC[C@H](C)[C@@H]1NC(=O)[C@H](CCCCN)NC(=O)[C@@H](NC(=O)[C@H](CC(C)C)NC(=O)[C@@H](NC(=O)[C@H](CCC(N)=O)NC(=O)[C@@H]2CCCN2C(=O)[C@H](CC(C)C)NC(=O)[C@H](Cc2ccccc2)NC(=O)[C@H](CC(N)=O)NC(=O)[C@H](C)NC(=O)[C@H](C)NC(=O)[C@H](CC(C)C)NC(=O)CNC(=O)[C@H](C)N)[C@@H](C)CC)CSSC[C@@H](C(N)=O)NC(=O)[C@H](CCCCN)NC(=O)[C@H](CCCNC(=N)N)NC(=O)[C@H](C)NC1=O [B1CTcu5-LI] (H-AGLAANFLPQILCKIARKC-NH2; disulfide 13-19) | 80 µg/mL (≈ 39.5 µM) | – | 50 µg/mL (≈ 24.7 µM) | 50 µg/mL (≈ 24.7 µM) | >100 µg/mL | 25 µg/mL (≈ 12.3 µM) | – | – | –
4 | CC[C@H](C)[C@H](NC(=O)[C@H](CCCCN)NC(=O)[C@H](CS)NC(=O)[C@H](CC(C)C)NC(=O)[C@@H](NC(=O)[C@H](CCC(N)=O)NC(=O)[C@@H]1CCCN1C(=O)[C@H](CC(C)C)NC(=O)[C@H](Cc1ccccc1)NC(=O)[C@H](CC(N)=O)NC(=O)[C@H](C)NC(=O)[C@H](C)NC(=O)[C@H](CC(C)C)NC(=O)CNC(=O)[C@H](C)NC(=O)[C@@H](NC(=O)[C@@H](N)CC(C)C)[C@@H](C)CC)[C@@H](C)CC)C(=O)N[C@@H](C)C(=O)N[C@@H](CCCNC(=N)N)C(=O)N[C@@H](CCCCN)C(=O)N[C@@H](CS)C(N)=O [Linear B1CTcu5] (H-LIAGLAANFLPQILCKIARKC-NH2) | 12.5 µg/mL (≈ 5.54 µM) | 50 µg/mL (≈ 22.2 µM) | >100 µg/mL | 25 µg/mL (≈ 11.1 µM) | >100 µg/mL | 25 µg/mL (≈ 11.1 µM) | – | – | –
5 | CC[C@H](C)[C@@H]1NC(=O)[C@H](CCCCN)NC(=O)[C@@H](NC(=O)[C@H](CC(C)C)NC(=O)[C@@H](NC(=O)[C@H](CCC(N)=O)NC(=O)[C@@H]2CCCN2C(=O)[C@H](CC(C)C)NC(=O)[C@H](Cc2ccccc2)NC(=O)[C@H](CC(N)=O)NC(=O)[C@H](C)NC(=O)[C@H](C)NC(=O)[C@H](CC(C)C)NC(=O)CNC(=O)[C@H](C)NC(=O)[C@@H](NC(=O)[C@@H](N)Cc2c[nH]c3ccccc23)[C@@H](C)CC)[C@@H](C)CC)CSSC[C@@H](C(N)=O)NC(=O)[C@H](CCCCN)NC(=O)[C@H](CCCNC(=N)N)NC(=O)[C@H](C)NC1=O [B1CTcu5W] (H-WIAGLAANFLPQILCKIARKC-NH2; disulfide 15-21) | 12.5 µg/mL (≈ 5.37 µM) | 50 µg/mL (≈ 21.5 µM) | 12.5 µg/mL (≈ 5.37 µM) | 100 µg/mL (≈ 43 µM) | >100 µg/mL | 25 µg/mL (≈ 10.7 µM) | 74.5 ± 2.44 µg/mL (≈ 32 µM) | >100 µg/mL | >100 µg/mL
6 | CC[C@@H](C)[C@@H](NC(=O)[C@H](N)CC(C)C)C(=O)N[C@H](C)C(=O)NCC(=O)N[C@H](CC(C)C)C(=O)N[C@H](C)C(=O)N[C@H](C)C(=O)N[C@H](CC(N)=O)C(=O)N[C@H](Cc1ccccc1)C(=O)N[C@H](CC(C)C)C(=O)N1CCC[C@@H]1C(=O)N[C@H](CCC(N)=O)C(=O)N[C@@H](C(=O)N[C@H](CC(C)C)C(=O)N[C@@H]1CSSC[C@H](C(N)=O)NC(=O)[C@@H](CCCCN)NC(=O)[C@@H](CCCNC(=N)N)NC(=O)[C@@H](C)NC(=O)[C@@H]([C@H](C)CC)NC(=O)[C@@H](CCCCN)NC1=O)[C@H](C)CC [DB1CTcu5] (H-[dL][dI][dA]G[dL][dA][dA][dN][dF][dL][dP][dQ][dI][dL][dC][dK][dI][dA][dR][dK][dC]-NH2; disulfide 15-21) | 15 µg/mL (≈ 6.66 µM) | 50 µg/mL (≈ 22.2 µM) | 50 µg/mL (≈ 22.2 µM) | 25 µg/mL (≈ 11.1 µM) | >100 µg/mL | – | 71.4 ± 2.3 µg/mL (≈ 31.7 µM) | >100 µg/mL | >100 µg/mL
7 | CC[C@H](C)[C@H](NC(=O)[C@H](CCCCN)NC(=O)[C@H](CSCNC(C)=O)NC(=O)[C@H](CC(C)C)NC(=O)[C@@H](NC(=O)[C@H](CCC(N)=O)NC(=O)[C@@H]1CCCN1C(=O)[C@H](CC(C)C)NC(=O)[C@H](Cc1ccccc1)NC(=O)[C@H](CC(N)=O)NC(=O)[C@H](C)NC(=O)[C@H](C)NC(=O)[C@H](CC(C)C)NC(=O)CNC(=O)[C@H](C)NC(=O)[C@@H](NC(=O)[C@@H](N)CC(C)C)[C@@H](C)CC)[C@@H](C)CC)C(=O)N[C@@H](C)C(=O)N[C@@H](CCCNC(=N)N)C(=O)N[C@@H](CCCCN)C(=O)N[C@@H](CS)C(N)=O [B1CTcu5C (Acm)] (H-LIAGLAANFLPQILC(Acm)KIARKC-NH2) | 25 µg/mL (≈ 10.7 µM) | 50 µg/mL (≈ 21.5 µM) | 50 µg/mL (≈ 21.5 µM) | 12.5 µg/mL (≈ 5.37 µM) | >100 µg/mL | 50 µg/mL (≈ 21.5 µM) | – | – | –
8 | CC[C@H](C)[C@@H]1NC(=O)[C@H](CCCCN)NC(=O)[C@@H](NC(=O)[C@H](CC(C)C)NC(=O)[C@@H](NC(=O)[C@H](CCC(N)=O)NC(=O)[C@@H]2CCCN2C(=O)[C@H](CC(C)C)NC(=O)[C@H](Cc2ccccc2)NC(=O)[C@H](CC(N)=O)NC(=O)[C@H](C)NC(=O)[C@H](C)NC(=O)[C@H](CC(C)C)NC(=O)CNC(=O)[C@H](C)NC(=O)[C@@H](NC(=O)[C@@H](N)CCCCN)[C@@H](C)CC)[C@@H](C)CC)CSSC[C@@H](C(N)=O)NC(=O)[C@H](CCCCN)NC(=O)[C@H](CCCNC(=N)N)NC(=O)[C@H](C)NC1=O [B1CTcu5K] (H-KIAGLAANFLPQILCKIARKC-NH2; disulfide 15-21) | 12.5 µg/mL (≈ 5.51 µM) | 100 µg/mL (≈ 44.1 µM) | 12.5 µg/mL (≈ 5.51 µM) | 25 µg/mL (≈ 11 µM) | >100 µg/mL | 25 µg/mL (≈ 11 µM) | >100 µg/mL | >100 µg/mL | >100 µg/mL
9 | CC[C@H](C)[C@@H]1NC(=O)[C@H](CCCCN)NC(=O)[C@@H](NC(=O)[C@H](CC(C)C)NC(=O)[C@@H](NC(=O)[C@H](CCC(N)=O)NC(=O)[C@@H]2CCCN2C(=O)[C@H](CC(C)C)NC(=O)[C@H](Cc2ccccc2)NC(=O)[C@H](CC(N)=O)NC(=O)[C@H](C)NC(=O)[C@H](C)NC(=O)[C@H](CC(C)C)NC(=O)CN)[C@@H](C)CC)CSSC[C@@H](C(N)=O)NC(=O)[C@H](CCCCN)NC(=O)[C@H](CCCNC(=N)N)NC(=O)[C@H](C)NC1=O [B1CTcu5-LIA] (H-GLAANFLPQILCKIARKC-NH2; disulfide 12-18) | 100 µg/mL (≈ 51.1 µM) | 100 µg/mL (≈ 51.1 µM) | 50 µg/mL (≈ 25.6 µM) | 100 µg/mL (≈ 51.1 µM) | >100 µg/mL | 50 µg/mL (≈ 25.6 µM) | – | – | –
10 | CC[C@H](C)[C@H](N)C(=O)N[C@@H](C)C(=O)NCC(=O)N[C@@H](CC(C)C)C(=O)N[C@@H](C)C(=O)N[C@@H](C)C(=O)N[C@@H](CC(N)=O)C(=O)N[C@@H](Cc1ccccc1)C(=O)N[C@@H](CC(C)C)C(=O)N1CCC[C@H]1C(=O)N[C@@H](CCC(N)=O)C(=O)N[C@H](C(=O)N[C@@H](CC(C)C)C(=O)N[C@H]1CSSC[C@@H](C(N)=O)NC(=O)[C@H](CCCCN)NC(=O)[C@H](CCCNC(=N)N)NC(=O)[C@H](C)NC(=O)[C@H]([C@@H](C)CC)NC(=O)[C@H](CCCCN)NC1=O)[C@@H](C)CC [B1CTcu5-L] (H-IAGLAANFLPQILCKIARKC-NH2; disulfide 14-20) | 100 µg/mL (≈ 46.7 µM) | 100 µg/mL (≈ 46.7 µM) | 25 µg/mL (≈ 11.7 µM) | 50 µg/mL (≈ 23.4 µM) | >100 µg/mL | 25 µg/mL (≈ 11.7 µM) | – | – | –

From paper PMC4440778, “Structure-Activity Relationship and Mode of Action of a Frog Secreted Antibacterial Peptide B1CTcu5 Using Synthetically and Modularly Modified or Deleted (SMMD) Peptides” (PLoS ONE, 2015)
